Measurements from patent US20250122266A1, “SMART SINGLE-DOMAIN INTRABODIES WITH PRECISION SWITCHES FOR BIOMEDICAL APPLICATIONS” (THE TEXAS A&M UNIVERSITY SYSTEM, priority 2020, published 2025).

Test system: Mito-mCh
Assay: mitochondria (Mito) translocation assay of rapabody and caffebody
Assay type: cell-based
Settings: HeLa cells, GFP-caffebody and Mito-mCh
Protocol: For ligand-controllable nanobodies rapabody and caffebody, similar imaging and data analysis procedures were used. Transfected HeLa cells were incubated with normal growth media or media supplemented with different concentrations of ligands or diluted beverages as indicated in the figures. Coffees and teas were purchased from Starbucks, while other drinks were purchased from a grocery store.
The instant example evaluates whether the installation of genetically-encoded chemical switches would likewise enable chemogenetic control of nanobodies. The LOV2 domain in the S3 loop of sunbody was substituted with two ligand-controllable precision switches, UniRapR and a dimeric concatemer of acVHH (2×acVHH; FIG. 23A). UniRapR, engineered from the FKBP-FRB based chemically-inducible dimerization system, has been used to enable rapamycin-induced allosteric control of a wide range of host proteins, including kinases and GTPases. Further, acVHH is known to induce self-dimerization upon addition of caffeine, and thus it was hypothesized to elicit conformational changes when inserted into a host protein as a dimeric concatemer. These intrabody compositions were named “rapabodies” and “caffebodies”, respectively, to reflect the compounds used for chemogenetic manipulation. […]

Cn1c(=O)c2[nH]cnc2n(C)c1=O [theophylline]
activation of caffebody by caffeine analog or beverages: could similarly activate caffebody
